The values that follow come from publication PMC11435205, “TnP and AHR-CYP1A1 Signaling Crosstalk in an Injury-Induced Zebrafish Inflammation Model” (Pharmaceuticals, 2024).

One data set deals with CYP1. The settings on record: cited from earlier work.
The target in a further data set is T1, CYP1A1 (Homo sapiens, UniProt P04798).
T1 sequence (P04798 1-512): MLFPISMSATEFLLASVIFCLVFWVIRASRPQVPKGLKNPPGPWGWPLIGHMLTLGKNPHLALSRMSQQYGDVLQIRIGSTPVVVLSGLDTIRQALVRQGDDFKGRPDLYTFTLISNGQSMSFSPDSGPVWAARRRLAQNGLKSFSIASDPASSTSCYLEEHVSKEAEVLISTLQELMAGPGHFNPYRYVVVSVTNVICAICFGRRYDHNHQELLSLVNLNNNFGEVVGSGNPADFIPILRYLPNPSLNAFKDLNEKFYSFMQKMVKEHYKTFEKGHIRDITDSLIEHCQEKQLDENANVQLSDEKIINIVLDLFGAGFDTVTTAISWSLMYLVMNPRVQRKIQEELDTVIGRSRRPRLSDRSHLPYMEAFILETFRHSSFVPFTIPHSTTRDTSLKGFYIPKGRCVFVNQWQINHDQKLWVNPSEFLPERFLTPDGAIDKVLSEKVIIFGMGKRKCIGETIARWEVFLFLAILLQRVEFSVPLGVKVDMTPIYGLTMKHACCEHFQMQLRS
Description: in vitro. As to conditions: pH 7.4, CYP1A1 enzyme activity (%), MNF 2.5 µM, positive control.

The test system of data set [1] is (DOX)-induced cardiotoxicity. As to conditions: zebrafish; cited from earlier work. From the text:
In addition to its implication in the resolution of inflammation and tissue injury, Asnani et al. recently concluded that inhibition of CYP1 was protective of (DOX)-induced cardiotoxicity.

Description for CYP1A1: The ethoxyresorufin deethylase (EROD) assay was performed using recombinant human CYP1A1 to determine TnP-mediated inhibition of CYP1A1 enzyme activity according to Wincent et al. [47], with minor changes. In brief, 2.5 nM CYP1A1 was pre-incubated with different concentrations of TnP in Tris-HCl buffer (0.1 M, pH 7.4) with EDTA (1 mM) at 37 °C for 3 min followed by the addition of ethoxyresorufin (0.1 μM) and NADPH (0.4 mM). Formation of resorufin was quantified in triplicates using a Tecan Infinite F200 multiwell plate reader (Tecan Group Ltd., Männedorf, Switzerland) with the excitation/emission wavelengths of 530/590 nm every 4 s for 2 min. The enzyme activity was determined by comparing the rate of resorufin formation compared to the vehicle control DMSO. The TnP concentration causing 50% inhibition of EROD activity (IC50) was estimated by nonlinear dose–response inhibition analysis using GraphPad Prism 9.1 (GraphPad Software, San Diego, CA, USA).
All the concentration were read at least in triplicate. Dimethyl sulfoxide – DMSO was tested
as negative control, and 3’-methoxy-4’-nitroflavone – MNF as positive control.

Regarding `O=Cc1c2c(cc3c1=Nc1ccccc1-3)=Nc1ccccc1-2` [FICZ], the clearance dependence result with CYP1 is reported as “clearance is dependent on CYP1”.

`COc1cc(-c2cc(=O)c3ccccc3o2)ccc1[N+](=O)[O-]` [MNF]: the activity was 1.54% on CYP1A1 (replicate I); 1.54% on CYP1A1 (replicate II); 1.71% at CYP1A1 (replicate III); 1.67% on CYP1A1 (replicate IV); 0.51% at CYP1A1 (replicate IX); 1.31% on CYP1A1 (replicate V). Also, the activity at CYP1A1 (replicate VI) amounted to 1.7%; on CYP1A1 (replicate VII) it was 0.51%; at CYP1A1 (replicate VIII) it was 0.51%.

With `COc1c2ccoc2cc2oc(C)cc(=O)c12` [visnagin], in data set [1], the “effect on DOX-induced cardiotoxicity” value is given as “cardioprotection”.
